Tested on: 186277-243-T-J2-PDC complex spheroid viability
Assay: Anticancer human tumor 186277-243-T-J2-PDC patient-derived colon adenocarcinoma cell line growth inhibition
Details: for IC50: curve of first compound; for viability, T/C: stronger effect = lower value
Summary of the method: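 Drug combinations with the LSD1 inhibitor iadademstat tested on tumor cells co-cultured as spheroids with endothelial cells and mesenchymal stem cells. Concentrations descended in half-log increments from clinical Cmax or 10 microM.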

[1] = second compound 0.1 µM, first compound 0.00949 µM
[2] = second compound 0.1 µM, first compound 0.03 µM
[3] = second compound 0.1 µM, first compound 0.0949 µM
[4] = second compound 0.1 µM, first compound 0.3 µM
[5] = second compound 0.1 µM, first compound 0.949 µM
[6] = second compound 0.1 µM, first compound 3 µM
[7] = second compound 0.316 µM, first compound 0.00949 µM
[8] = second compound 0.316 µM, first compound 0.03 µM
[9] = second compound 0.316 µM, first compound 0.0949 µM
[10] = second compound 0.316 µM, first compound 0.3 µM
[11] = second compound 0.316 µM, first compound 0.949 µM
[12] = second compound 0.316 µM, first compound 3 µM
[13] = second compound 1 µM, first compound 0.00949 µM
[14] = second compound 1 µM, first compound 0.03 µM
[15] = second compound 1 µM, first compound 0.0949 µM
[16] = second compound 1 µM, first compound 0.3 µM
[17] = second compound 1 µM, first compound 0.949 µM
[18] = second compound 1 µM, first compound 3 µM
[19] = second compound 3.16 µM, first compound 0.00949 µM
[20] = second compound 3.16 µM, first compound 0.03 µM
[21] = second compound 3.16 µM, first compound 0.0949 µM
[22] = second compound 3.16 µM, first compound 0.3 µM
[23] = second compound 3.16 µM, first compound 0.949 µM
[24] = second compound 3.16 µM, first compound 3 µM
[25] = second compound 10 µM, first compound 0.00949 µM
[26] = second compound 10 µM, first compound 0.03 µM
[27] = second compound 10 µM, first compound 0.0949 µM
[28] = second compound 10 µM, first compound 0.3 µM
[29] = second compound 10 µM, first compound 0.949 µM
[30] = second compound 10 µM, first compound 3 µM
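Also: 7 day exposure to compounds.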
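For viability, T/C in this document: 100% = DMSO vehicle control viability.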

Compound Cn1ncnc1C1c2n[nH]c(=O)c3cc(F)cc(c23)NC1c1ccc(F)cc1 (stereo not given) + NC1CC1c1ccc(-c2cccc(O)c2)cc1 has an IC50 (second compound 0.1 µM) greater than 100 nM, an IC50 (second compound 0.316 µM) greater than 100 nM and an IC50 (second compound 1 µM) greater than 100 nM. It also gave an IC50 (second compound 3.16 µM) greater than 100 nM, an IC50 (second compound 10 µM) greater than 100 nM and a viability, T/C (second compound 0.1 µM, first compound 0.000316 µM) of 110%. For the same compound, the viability, T/C (second compound 0.1 µM, first compound 0.001 µM) was 109%, the viability, T/C (second compound 0.1 µM, first compound 0.00316 µM) was 112% and the viability, T/C (second compound 0.1 µM, first compound 0.01 µM) was 110%. The viability, T/C (second compound 0.1 µM, first compound 0.0316 µM) was 106%, the viability, T/C (second compound 0.1 µM, first compound 0.1 µM) was 115% and the viability, T/C (second compound 0.316 µM, first compound 0.000316 µM) was 113%. For the same compound, the viability, T/C (second compound 0.316 µM, first compound 0.001 µM) was 110%, the viability, T/C (second compound 0.316 µM, first compound 0.00316 µM) was 93.8% and the viability, T/C (second compound 0.316 µM, first compound 0.01 µM) was 97.7%. The viability, T/C (second compound 0.316 µM, first compound 0.0316 µM) was 100%, the viability, T/C (second compound 0.316 µM, first compound 0.1 µM) was 106% and the viability, T/C (second compound 1 µM, first compound 0.000316 µM) was 113%. It also gave a viability, T/C (second compound 1 µM, first compound 0.001 µM) of 114%, a viability, T/C (second compound 1 µM, first compound 0.00316 µM) of 120% and a viability, T/C (second compound 1 µM, first compound 0.01 µM) of 104%. For the same compound, the viability, T/C (second compound 1 µM, first compound 0.0316 µM) was 108%, the viability, T/C (second compound 1 µM, first compound 0.1 µM) was 110% and the viability, T/C (second compound 3.16 µM, first compound 0.000316 µM) was 110%. The viability, T/C (second compound 3.16 µM, first compound 0.001 µM) was 115%, the viability, T/C (second compound 3.16 µM, first compound 0.00316 µM) was 112% and the viability, T/C (second compound 3.16 µM, first compound 0.01 µM) was 107%. The viability, T/C (second compound 3.16 µM, first compound 0.0316 µM) was 113%, the viability, T/C (second compound 3.16 µM, first compound 0.1 µM) was 110% and the viability, T/C (second compound 10 µM, first compound 0.000316 µM) was 110%. For the same compound, the viability, T/C (second compound 10 µM, first compound 0.001 µM) was 106%, the viability, T/C (second compound 10 µM, first compound 0.00316 µM) was 127% and the viability, T/C (second compound 10 µM, first compound 0.01 µM) was 109%. The viability, T/C (second compound 10 µM, first compound 0.0316 µM) was 104% and the viability, T/C (second compound 10 µM, first compound 0.1 µM) was 100%.
With NS(=O)(=O)OCC1CC(n2ccc3c(NC4CCc5ccccc54)ncnc32)CC1O (stereo not given) + NC1CC1c1ccc(-c2cccc(O)c2)cc1 the IC50 (second compound 0.1 µM) was 249 nM, the IC50 (second compound 0.316 µM) was 303 nM and the IC50 (second compound 1 µM) was 319 nM. For the same compound, the IC50 (second compound 3.16 µM) was 397 nM, the IC50 (second compound 10 µM) was 265 nM and the viability, T/C [1] was 98.8%. The viability, T/C [2] was 89.8%, the viability, T/C [3] was 76.8% and the viability, T/C [4] was 47.3%. It also gave a viability, T/C [5] of 11%, a viability, T/C [6] of 4.48% and a viability, T/C [7] of 104%. The viability, T/C [8] was 101%, the viability, T/C [9] was 82.3% and the viability, T/C [10] was 53.9%. It also gave a viability, T/C [11] of 11.7%, a viability, T/C [12] of 3.87% and a viability, T/C [13] of 116%. The viability, T/C [14] was 96.8%, the viability, T/C [15] was 85.1% and the viability, T/C [16] was 55.9%. The viability, T/C [17] was 14.4%, the viability, T/C [18] was 4.26% and the viability, T/C [19] was 116%. For the same compound, the viability, T/C [20] was 98.2%, the viability, T/C [21] was 84.4% and the viability, T/C [22] was 69%. For the same compound, the viability, T/C [23] was 12.8%, the viability, T/C [24] was 3.82% and the viability, T/C [25] was 107%. It also gave a viability, T/C [26] of 90.6%, a viability, T/C [27] of 73.4% and a viability, T/C [28] of 52.8%. For the same compound, the viability, T/C [29] was 14% and the viability, T/C [30] was 3.25%.
Work on O=C(C=Cc1cccc(S(=O)(=O)Nc2ccccc2)c1)NO + NC1CC1c1ccc(-c2cccc(O)c2)cc1 yielded an IC50 (second compound 0.1 µM) of 240 nM, an IC50 (second compound 0.316 µM) of 237 nM and an IC50 (second compound 1 µM) of 260 nM. The IC50 (second compound 3.16 µM) was 268 nM, the IC50 (second compound 10 µM) was 238 nM and the viability, T/C [1] was 104%. It also gave a viability, T/C [2] of 103%, a viability, T/C [3] of 94% and a viability, T/C [4] of 23.5%. For the same compound, the viability, T/C [5] was 3.89%, the viability, T/C [6] was 91.1% and the viability, T/C [7] was 106%. For the same compound, the viability, T/C [8] was 113%, the viability, T/C [9] was 90.8% and the viability, T/C [10] was 25.9%. For the same compound, the viability, T/C [11] was 3.14%, the viability, T/C [12] was 89.5% and the viability, T/C [13] was 116%. The viability, T/C [14] was 101%, the viability, T/C [15] was 109% and the viability, T/C [16] was 23.3%. For the same compound, the viability, T/C [17] was 3.06%, the viability, T/C [18] was 98.7% and the viability, T/C [19] was 118%. It also gave a viability, T/C [20] of 106%, a viability, T/C [21] of 111% and a viability, T/C [22] of 26%. The viability, T/C [23] was 3.1%, the viability, T/C [24] was 101% and the viability, T/C [25] was 99.3%. For the same compound, the viability, T/C [26] was 96.8%, the viability, T/C [27] was 87.5% and the viability, T/C [28] was 21.8%. The viability, T/C [29] was 1.11% and the viability, T/C [30] was 99%.

— PubChem BioAssay AID1918933 (Molecular Pharmacology Branch, DTP, NCI, 2023)
